Here are results for three molecules from patent US4303592A (priority 1980, dated 1981).

In data set [1] the target is T1, Trypsin (Bos taurus, UniProt P00760).
T1 sequence (P00760 24-246): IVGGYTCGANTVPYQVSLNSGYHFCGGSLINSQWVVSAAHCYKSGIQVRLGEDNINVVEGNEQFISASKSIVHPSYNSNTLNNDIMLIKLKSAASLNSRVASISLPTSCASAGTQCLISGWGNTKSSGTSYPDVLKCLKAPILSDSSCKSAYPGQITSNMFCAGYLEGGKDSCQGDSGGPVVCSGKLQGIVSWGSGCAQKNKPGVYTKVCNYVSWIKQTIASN
In words: inactivation of trypsin by meta amidinophenylmethylsulfonylfluoride. It counts as biochemical, bovine. The following applies: equimolar or greater amounts of reagent; FIG. 2. The method, then:
(§1) m-Amidinophenylmethylsulfonylfluoride was tested for inhibitory activity against bovine trypsin and chymotrypsin.

Data set [2] concerns chymotrypsin. Put plainly: inhibition of chymotrypsin by m-amidinophenylmethylsulfonylfluoride. It counts as biochemical. The settings on record: 30 minutes, four-fold molar excess. How it is done:
as §1

The target of data set [3] is T1, Trypsin. In words: inhibition/inactivation of bovine trypsin. It counts as biochemical. The settings on record: for % Activity Remaining: Trypsin 60.6 μM, PAPMSF 127 μM.
In a further data set the target is Thrombin (Homo sapiens, UniProt P00734). Put plainly: inhibition/inactivation of human thrombin. The settings on record: for % Activity Remaining: Thrombin 74.5 μM, PAPMSF 159 μM. It counts as biochemical.
The target in another data set is T2, Cl-s (Homo sapiens, UniProt P09871).
T2 sequence (P09871 438-688 limits assumed): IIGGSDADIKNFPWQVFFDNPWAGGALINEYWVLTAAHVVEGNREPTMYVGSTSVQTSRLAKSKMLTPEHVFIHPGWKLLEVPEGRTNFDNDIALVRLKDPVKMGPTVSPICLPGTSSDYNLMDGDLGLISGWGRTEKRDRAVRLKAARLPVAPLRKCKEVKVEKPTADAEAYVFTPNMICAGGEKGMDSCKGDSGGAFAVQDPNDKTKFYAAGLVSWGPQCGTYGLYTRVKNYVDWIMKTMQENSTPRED
T2 sequence (P09871 16-437 partner limits assumed): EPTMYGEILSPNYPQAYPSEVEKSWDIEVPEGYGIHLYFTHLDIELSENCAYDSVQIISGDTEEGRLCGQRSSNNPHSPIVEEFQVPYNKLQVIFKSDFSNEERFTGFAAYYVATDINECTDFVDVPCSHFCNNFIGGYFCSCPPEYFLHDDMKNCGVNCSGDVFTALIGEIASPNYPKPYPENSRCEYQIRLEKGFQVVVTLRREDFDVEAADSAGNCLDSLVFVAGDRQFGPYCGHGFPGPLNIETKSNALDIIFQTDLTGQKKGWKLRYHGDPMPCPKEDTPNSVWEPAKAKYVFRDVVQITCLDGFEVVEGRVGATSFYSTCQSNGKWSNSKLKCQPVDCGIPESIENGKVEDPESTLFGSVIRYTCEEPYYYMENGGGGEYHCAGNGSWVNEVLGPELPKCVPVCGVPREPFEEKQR
In words: inhibition/inactivation of human Cls. The data set is classed as biochemical. The settings on record: for % Activity Remaining: Cl-s 27.5 μM, PAPMSF 64 μM.

The subject of another data set is Cl-r. Put plainly: inhibition/inactivation of human Clr. The data set is classed as biochemical.
For data set [4], the system named is chymotrypsin. In words: inhibition of bovine chymotrypsin. It counts as biochemical. The settings on record: neutral pH, approximately 10-fold excess of reagent over enzyme; FIG. 1.
The test system of data set [5] is serine proteases. Put plainly: serine protease inactivation by known inactivators (background). The following applies: approximately 2:1 reagent:enzyme; Table 1. The data set is classed as biochemical.
Data set [6] concerns serine proteases. In words: reactivity of para versus meta form.
Another data set relates to acetyl cholinesterase. In words: inhibition of bovine acetyl cholinesterase.
For data set [7], the system named is trypsin. The following applies: large excess with respect to enzyme; cited from earlier work.
For data set [8], the system named is chymotrypsin. The settings on record: large excess with respect to enzyme; cited from earlier work.
Where [9] appears, read: neutral pH, approximately 10-fold excess of reagent over enzyme, FIG. 1.

Like-named read-outs stand apart in the source and are kept apart here.

`N=C(N)c1cccc(CS(=O)(=O)F)c1` [MAPMSF, m-Amidinophenylmethylsulfonylfluoride]: the “inactivation (in words)” value on Trypsin [1] was “slowly inactivated”. Besides, in the data set with chymotrypsin [2], the loss of activity result was “no loss of activity”.
A word on the solubility: it is how much of the substance goes into solution per volume. For `N=C(N)c1ccc(CS(=O)(=O)F)cc1` [PAPMSF, p-amidinophenylmethylsulfonylfluoride], the “% Activity Remaining” value at Trypsin [3] (1 min) is 0%; at Trypsin [3] (5 min), 0%; at Trypsin [3] (10 min), 0%; on Thrombin (1 min) it was 26%; at Thrombin (5 min), 24%; at Thrombin (10 min), 21%. Moreover, the “% Activity Remaining” value at Cl-s (1 min) was determined as 60%; at Cl-s (5 min), 59%; on Cl-s (10 min), 52%; in the data set with Cl-r (Cl-r 4.8 μgm/ml, PAPMSF 130 μM, 10 min), 25%. In addition, at Trypsin [3] (dialysis of inactivated trypsin), the “recovery of enzymatic activity after dialysis (irreversibility)” value was “did not lead to recovery of enzymatic activity”. The “inactivation (in words)” value at Trypsin [3] (setting [9]), on Thrombin (setting [9]), on Cl-s (setting [9]) and in the data set on Cl-r (setting [9]) was “rapidly inactivated” each time. The “rate of inactivation of trypsin, pH dependence” value on Trypsin [3] (pH 3.0, 5.0 or 7.4) is listed as “essentially unchanged”. In addition, the “inhibition (in words)” value with chymotrypsin [4] and in the data set with acetyl cholinesterase (setting [9]) was “not inhibited” throughout. For the same molecule, the “inhibition at lower concentrations (in words)” value in the data set with serine proteases [5] is on record as “still an effective inhibitor”. The “reactivity / activity relative to meta form” value with serine proteases [6] was “higher activity than the meta form”. In addition, the “stability in water at high pH” value in the data set “stability” (aqueous solutions above pH 8) was “can hydrolyze to sulfonic acid in water at high pH”. Moreover, the “stability in solution in organic solvents” value in “stability” (methanol, acetone, ethanol, dimethylsulfoxide, acetonitrile, dimethylformamide and the like) is listed as “stable in solution in organic solvents”. The “stability of salts at physiological conditions” value in the data set “stability” (pH and contact with aqueous based body fluids) is on record as “good stability at physiological conditions”. Besides, the solubility in the data set “solubility in water” was not above 10 mM. The “reaction with acetyl cholinesterase (in words)” value with acetyl cholinesterase is “does not react with acetyl cholinesterase”. In addition, the “toxic properties compared with diisopropylfluorophosphate (in words)” value in the data set on acetyl cholinesterase (inferred from lack of reaction with acetyl cholinesterase) is recorded as “does not have the toxic properties previously described for diisopropylfluorophosphate”.
Take `O=S(=O)(F)Cc1ccccc1` [Phenylmethanesulfonylfluoride]: the “inhibition (in words)” value with trypsin [7] is “inhibits both trypsin and chymotrypsin”; in the data set with chymotrypsin [8] it was “inhibits both trypsin and chymotrypsin”.
